Data reported in patent US11254663B2 (BRISTOL-MYERS SQUIBB COMPANY, priority 2019, dated 2022).

Target: FXR (Homo sapiens (Human), UniProt Q96RI1)
Assay: transient human FXR/Gal4-luciferase reporter assay
Type: cell-based
Conditions: not given
In short: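 Compound exposure ran overnight at 37 °C and activity was measured as luminescence with Steady-Glo reagent. The cells were a HEK293 line stably expressing firefly luciferase under five Gal4 response elements. They were transiently transfected, one night beforehand, with a plasmid encoding Gal4 DNA-binding domain fused to the human FXR ligand-binding domain.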

Chain of FXR (Q96RI1 262-486): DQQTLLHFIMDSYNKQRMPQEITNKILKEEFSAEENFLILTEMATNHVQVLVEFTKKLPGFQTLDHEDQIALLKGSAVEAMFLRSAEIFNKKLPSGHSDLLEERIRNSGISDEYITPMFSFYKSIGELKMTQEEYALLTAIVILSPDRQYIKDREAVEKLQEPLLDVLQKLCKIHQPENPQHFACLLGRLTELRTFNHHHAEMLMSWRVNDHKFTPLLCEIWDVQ

Row | Compound | EC50 [nM]
1 | CC(C)(C)c1nc(C23CCC(CN(C(=O)C45CC(F)(C4)C5)c4cc(-c5cnc(C6CC6)nc5)ccn4)(CC2)CC3)no1 [Example 539, N-((4-(5-(tert-butyl)-1,2,4-oxadiazol-3-yl)bicyclo[2.2.2]octan-1-yl)methyl)-N-(4-(2-cyclopropylpyrimidin-5-yl)pyridin-2-yl)-3-fluorobicyclo[1.1.1]pentane-1-carboxamide] | 119
2 | Cc1nc2ccc(-c3cccc(N(CC45CCC(c6nc(C7CC7)no6)(CC4)OC5)C(=O)C4CCC(F)(F)C4)c3)cc2s1 (centres unmarked) [Example 567, N-((1-(3-cyclopropyl-1,2,4-oxadiazol-5-yl)-2-oxabicyclo[2.2.2]octan-4-yl)methyl)-3,3-difluoro-N-(3-(2-methylbenzo[d]thiazol-6-yl)phenyl)cyclopentane-1-carboxamide] | 432

Same assay, conditions: Gal4-hFXR fusion construct, HEK293 reporter cells; response relative to 8 μM GW-4064

Row | Compound | EC50 [nM]
3 | O=C(N(CC12CCC(c3nc(C4CC4)no3)(CC1)CC2)c1cccc(-c2ccn3cnnc3c2)c1)C12CC(F)(C1)C2 [Example 307, N-(3-([1,2,4]triazolo[4,3-a]pyridin-7-yl)phenyl)-N-((4-(3-cyclopropyl-1,2,4-oxadiazol-5-yl)bicyclo[2.2.2]octan-1-yl)methyl)-3-fluorobicyclo[1.1.1]pentane-1-carboxamide] | 832
4 | CCOc1ccc(-c2cccc(N(CC34CCC(c5nc(C6CC6)no5)(CC3)CC4)C(=O)C34CC(F)(C3)C4)c2)nn1 [Example 283, N-((4-(3-cyclopropyl-1,2,4-oxadiazol-5-yl)bicyclo[2.2.2]octan-1-yl)methyl)-N-(3-(6-ethoxypyridazin-3-yl)phenyl)-3-fluorobicyclo[1.1.1]pentane-1-carboxamide] | 234
5 | CCOc1ncc(-c2cccc(N(CC34CCC(c5nc(C(C)C)no5)(CC3)CC4)C(=O)C34CC(F)(C3)C4)c2)cn1 [Example 374, N-(3-(2-ethoxypyrimidin-5-yl)phenyl)-3-fluoro-N-((4-(3-isopropyl-1,2,4-oxadiazol-5-yl)bicyclo[2.2.2]octan-1-yl)methyl)bicyclo[1.1.1]pentane-1-carboxamide] | 44
6 | CC(C)(O)c1ccc(-c2cc(N(CC34CCC(c5nc(C6CC6)no5)(CC3)CC4)C(=O)OC(C)(C)C(F)(F)F)ncc2F)cc1F [Example 618, 1,1,1-trifluoro-2-methylpropan-2-yl((4-(3-cyclopropyl-1,2,4-oxadiazol-5-yl)bicyclo[2.2.2]octan-1-yl)methyl)(5-fluoro-4-(3-fluoro-4-(2-hydroxypropan-2-yl)phenyl)pyridin-2-yl) carbamate] | 49
7 | CCOc1ncc(-c2cccc(N(CC34CCC(c5cc(C6CC6)nn5C)(CC3)CC4)C(=O)C34CC(F)(C3)C4)c2)cn1 [Example 413, N-((4-(3-cyclopropyl-1-methyl-1H-pyrazol-5-yl)bicyclo[2.2.2]octan-1-yl)methyl)-N-(3-(2-ethoxypyrimidin-5-yl)phenyl)-3-fluorobicyclo[1.1.1]pentane-1-carboxamide] | 192
8 | CCOc1ccc(-c2cccc(N(CC34CCC(c5nc(C6CC6)no5)(CC3)CC4)C(=O)C34CC(F)(C3)C4)c2)cc1 [Example 290, N-((4-(3-cyclopropyl-1,2,4-oxadiazol-5-yl)bicyclo[2.2.2]octan-1-yl)methyl)-N-(4′-ethoxy-[1,1′-biphenyl]-3-yl)-3-fluorobicyclo[1.1.1]pentane-1-carboxamide] | 60
9 | N#CC1(c2ccc(-c3cccc(N(CC45CCC(c6noc(C7(F)CC7)n6)(CC4)CC5)C(=O)[C@H]4C[C@](O)(C(F)(F)F)C4)c3)cc2F)CC1 [Example 578, (cis)-N-(4′-(1-cyanocyclopropyl)-3′-fluoro-[1,1′-biphenyl]-3-yl)-N-((4-(5-(1-fluorocyclopropyl)-1,2,4-oxadiazol-3-yl)bicyclo[2.2.2]octan-1-yl)methyl)-3-hydroxy-3-(trifluoromethyl)cyclobutane-1-carboxamide] | 92
10 | CC(C)(F)c1nc(C23CCC(CN(C(=O)O[C@H]4C[C@](O)(C(F)(F)F)C4)c4cc(-c5ccc(OC(F)F)cc5)c(F)cn4)(CC2)CC3)no1 [Example 629, (cis)-3-hydroxy-3-(trifluoromethyl)cyclobutyl (4-(4-(difluoromethoxy)phenyl)-5-fluoropyridin-2-yl)((4-(5-(2-fluoropropan-2-yl)-1,2,4-oxadiazol-3-yl)bicyclo[2.2.2]octan-1-yl)methyl)carbamate] | 99
11 | Cc1nc2ccc(-c3cccc(N(CC45CCC(c6nc(C(C)(C)C)no6)(CC4)CC5)C(=O)C45CC(F)(C4)C5)c3)cc2s1 [Example 362, N-((4-(3-(tert-butyl)-1,2,4-oxadiazol-5-yl)bicyclo[2.2.2]octan-1-yl)methyl)-3-fluoro-N-(3-(2-methylbenzo[d]thiazol-6-yl)phenyl)bicyclo[1.1.1]pentane-1-carboxamide] | 204
12 | N#Cc1cc(-c2cccc(N(CC34CCC(c5nc(C6CC6)no5)(CC3)CC4)C(=O)C34CC(F)(C3)C4)c2)ccc1F [Example 294, N-(3′-cyano-4′-fluoro-[1,1′-biphenyl]-3-yl)-N-((4-(3-cyclopropyl-1,2,4-oxadiazol-5-yl)bicyclo[2.2.2]octan-1-yl)methyl)-3-fluorobicyclo[1.1.1]pentane-1-carboxamide] | 579
13 | COc1ccc(-c2cccc(N(CC34CCC(c5ccc(C6(C#N)CC6)cc5)(CC3)OC4)C(=O)C34CC(F)(C3)C4)c2)cn1 [Example 350, N-((1-(4-(1-cyanocyclopropyl)phenyl)-2-oxabicyclo[2.2.2]octan-4-yl)methyl)-3-fluoro-N-(3-(6-methoxypyridin-3-yl)phenyl)bicyclo[1.1.1]pentane-1-carboxamide] | 296
14 | CC(C)(O)c1ccc(-c2ccnc(N(CC34CCC(c5noc(C(C)(C)F)n5)(CC3)CC4)C(=O)OC(C)(C)C(F)(F)F)c2)cc1 [Example 634, 1,1,1-trifluoro-2-methylpropan-2-yl((4-(5-(2-fluoropropan-2-yl)-1,2,4-oxadiazol-3-yl)bicyclo[2.2.2]octan-1-yl)methyl)(4-(4-(2-hydroxypropan-2-yl)phenyl)pyridin-2-yl) carbamate] | 31
15 | O=C(N(CC12CCC(c3nc(C4CC4)no3)(CC1)CC2)c1cccc(-c2ccc(OC(F)(F)F)cc2)c1)C12CC(F)(C1)C2 [Example 251, N-((4-(3-cyclopropyl-1,2,4-oxadiazol-5-yl)bicyclo[2.2.2]octan-1-yl)methyl)-3-fluoro-N-(4′-(trifluoromethoxy)-[1,1′-biphenyl]-3-yl)bicyclo[1.1.1]pentane-1-carboxamide] | 277
16 | COc1cc(-c2cccc(N(CC34CCC(c5nnc(C)s5)(CC3)CC4)C(=O)C34CC(F)(C3)C4)c2)ccn1 [Example 232, 3-Fluoro-N-(3-(2-methoxypyridin-4-yl)phenyl)-N-((4-(5-methyl-1,3,4-thiadiazol-2-yl)bicyclo[2.2.2]octan-1-yl)methyl)bicyclo[1.1.1]pentane-1-carboxamide] | 465
17 | CC(C)(F)c1nc(C23CCC(CN(C(=O)C45CC(F)(C4)C5)c4cccc(-c5cn[nH]c(=O)c5)c4)(CC2)CC3)no1 [Example 594, 3-fluoro-N-((4-(5-(2-fluoropropan-2-yl)-1,2,4-oxadiazol-3-yl)bicyclo[2.2.2]octan-1-yl)methyl)-N-(3-(6-oxo-1,6-dihydropyridazin-4-yl)phenyl)bicyclo[1.1.1]pentane-1-carboxamide] | 1840
